Reference: US20230085307A1, “PYRIDAZINONE COMPOUND AND HERBICIDE” (NISSAN CHEMICAL CORPORATION, priority 2019, published 2023)

Experiments:
wild oat = experiment: Test Example 4: herbicidal effect by soil treatment (Table 19, symbol I); format: in vivo, wild oat (Avena fatua); conditions: amount of applied herbicide 320 g/ha
Summary of the method: (§1)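 In this soil treatment, the formulated compound reached the seeds only through the soil: seeds were buried about 1.5 cm deep in sterilized diluvial soil, then the diluted emulsion was sprayed over the surface. After three weeks at 25° C. to 30° C. in a greenhouse, effects were graded on criteria from an earlier test.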

chickweed [1] = experiment: Test Example 5: herbicidal effect by foliage application, plastic box (Table 20, symbol P); format: in vivo, common chickweed (Stellaria media); conditions: 320 g/ha, foliage application after 14-day growth, evaluated three weeks after application
Summary of the method: (§2)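 Plants were sown into sterilized diluvial soil under about 1.5 cm cover and kept in a greenhouse at 25° C. to 30° C. Fourteen days on, foliage received an even spray of the diluted emulsion. Herbicidal or crop effect was judged three weeks afterwards.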

redroot pigweed = experiment: Test Example 4: herbicidal effect by soil treatment (Table 19, symbol N); format: in vivo, redroot pigweed (Amaranthus retroflexus); conditions: amount of applied herbicide 320 g/ha
Summary of the method: as §1

late watergrass = experiment: Test Example 2: herbicidal activity, application during weed generation under submerged conditions (Table 17, symbol A); format: in vivo, late watergrass (Echinochloa oryzicola); conditions: AAH 320 g/ha; application during weed generation, submerged conditions
Summary of the method: (§3)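 3-wk visual-criteria score after one water-surface dose. Emulsion formulation, water-diluted to set rate; applied at 1–2 leaf stage; alluvial soil, 4 cm standing water; seeds co-sown; greenhouse 25–30° C.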

persian speedwell = experiment: Test Example 5: herbicidal effect by foliage application, plastic box (Table 20, symbol R); format: in vivo, Persian speedwell (Veronica persica); conditions: 320 g/ha, foliage application after 14-day growth, evaluated three weeks after application
Summary of the method: as §2

chickweed [2] = experiment: Test Example 4: herbicidal effect by soil treatment (Table 19, symbol P); format: in vivo, common chickweed (Stellaria media); conditions: amount of applied herbicide 320 g/ha
Summary of the method: as §1

blackgrass = experiment: Test Example 4: herbicidal effect by soil treatment (Table 19, symbol J); format: in vivo, blackgrass (Alopecurus myosuroides); conditions: amount of applied herbicide 320 g/ha
Summary of the method: as §1

Chinese sprangletop = experiment: Test Example 3: herbicidal effect by foliage application, Wagner pot (Table 18, symbol D); format: in vivo, chinese sprangletop (Leptochloa chinensis); conditions: 320 g/ha
Summary of the method: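 Plants were sown in alluvial soil held under 0.1–0.5 cm standing water and grown 14 days in a greenhouse at 25–30 °C. An emulsifiable formulation, water-diluted to the set dose, was then sprayed onto the foliage, and effects were scored three weeks later using previously defined criteria.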

Japanese bulrush = experiment: Test Example 2: herbicidal activity, application during weed generation under submerged conditions (Table 17, symbol B); format: in vivo, Japanese bulrush (Schoenoplectus juncoides); conditions: AAH 320 g/ha; application during weed generation, submerged conditions
Summary of the method: as §3

barnyard grass = experiment: Test Example 4: herbicidal effect by soil treatment (Table 19, symbol H); format: in vivo, barnyard grass (Echinochloa crus-galli); conditions: amount of applied herbicide 320 g/ha
Summary of the method: as §1

lambsquarters [3] = experiment: Test Example 4: herbicidal effect by soil treatment (Table 19, symbol O); format: in vivo, lambsquarters (Chenopodium album); conditions: amount of applied herbicide 320 g/ha
Summary of the method: as §1

oval-leafed pondweed [4] = experiment: Test Example 2: herbicidal activity, application during weed generation under submerged conditions (Table 17, symbol C); format: in vivo, oval-leafed pondweed (Monochoria vaginalis); conditions: AAH 320 g/ha; application during weed generation, submerged conditions
Summary of the method: as §3

Italian ryegrass = experiment: Test Example 5: herbicidal effect by foliage application, plastic box (Table 20, symbol K); format: in vivo, Italian ryegrass (Lolium multiflorum); conditions: 320 g/ha, foliage application after 14-day growth, evaluated three weeks after application
Summary of the method: as §2

oval-leafed pondweed [5] = experiment: Test Example 1: herbicidal activity, application before weed generation under submerged conditions (Table 16, symbol C); format: in vivo, oval-leafed pondweed (Monochoria vaginalis); conditions: amount of applied herbicide 320 g/ha
Summary of the method: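 Emulsion formulation, water-diluted to set dose, was put onto the flooded surface (4 cm depth, alluvial soil) the same day weeds were sown and 2.5-leaf rice transplanted. After 3 weeks at 25-30 °C under glass, each species was rated 0 (≤5% kill) to 5 (≥90% kill).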

lambsquarters [6] = experiment: Test Example 5: herbicidal effect by foliage application, plastic box (Table 20, symbol O); format: in vivo, lambsquarters (Chenopodium album); conditions: 320 g/ha, foliage application after 14-day growth, evaluated three weeks after application
Summary of the method: as §2

| SMILES | Herbicidal effect by soil treatment, I: wild oat (wild oat) | herbicidal effect on P: chickweed (evaluation grade 0-5) (chickweed [1]) | Herbicidal effect by soil treatment, N: redroot pigweed (redroot pigweed) | herbicidal effect rating, A: late watergrass (late watergrass) | herbicidal effect on R: persian speedwell (evaluation grade 0-5) (persian speedwell) | Herbicidal effect by soil treatment, P: chickweed (chickweed [2]) | Herbicidal effect by soil treatment, J: blackgrass (blackgrass) | herbicidal effect on Chinese sprangletop (D) (Chinese sprangletop) | herbicidal effect rating, B: Japanese bulrush (Japanese bulrush) | Herbicidal effect by soil treatment, H: barnyard grass (barnyard grass) | Herbicidal effect by soil treatment, O: lambsquarters (lambsquarters [3]) | herbicidal effect rating, C: oval-leafed pondweed (oval-leafed pondweed [4]) | herbicidal effect on K: Italian ryegrass (evaluation grade 0-5) (Italian ryegrass) | Herbicidal effect, C: oval-leafed pondweed (oval-leafed pondweed [5]) | herbicidal effect on O: lambsquarters (evaluation grade 0-5) (lambsquarters [6]) |
| --- | --- | --- | --- | --- | --- | --- | --- | --- | --- | --- | --- | --- | --- | --- | --- |
| COc1ccc2c(-c3c(OC(=O)C4CCCCC4)c(C)nn(C)c3=O)c(-c3ccccc3OC)sc2c1 [3-156] | 0 (Herbicidal rate of 5% or less (almost no effect)) | 5 (Herbicidal rate of 90% or more (almost completely withered)) | 0 (Herbicidal rate of 5% or less (almost no effect)) | 3 (Herbicidal rate of 40% or more and less than 70%) | 5 (Herbicidal rate of 90% or more (almost completely withered)) | 3 (Herbicidal rate of 40% or more and less than 70%) | 0 (Herbicidal rate of 5% or less (almost no effect)) | 4 (Herbicidal rate of 70% or more and less than 90%) | 4 (Herbicidal rate of 70% or more and less than 90%) | 0 (Herbicidal rate of 5% or less (almost no effect)) | 0 (Herbicidal rate of 5% or less (almost no effect)) | 5 (Herbicidal rate of 90% or more (almost completely withered)) | 3 (Herbicidal rate of 40% or more and less than 70%) | 4 (Herbicidal rate of 70% or more and less than 90%) | 4 (Herbicidal rate of 70% or more and less than 90%) |
| COc1ccccc1-c1sc2cc(SC)ccc2c1-c1c(O)c(C)nn(C)c1=O [3-163] | 0 (Herbicidal rate of 5% or less (almost no effect)) | 5 (Herbicidal rate of 90% or more (almost completely withered)) | 5 (Herbicidal rate of 90% or more (almost completely withered)) | 3 (Herbicidal rate of 40% or more and less than 70%) | 5 (Herbicidal rate of 90% or more (almost completely withered)) | 4 (Herbicidal rate of 70% or more and less than 90%) | 3 (Herbicidal rate of 40% or more and less than 70%) | 5 (Herbicidal rate of 90% or more (almost completely withered)) | 0 (Herbicidal rate of 5% or less (almost no effect)) | 5 (Herbicidal rate of 90% or more (almost completely withered)) | 3 (Herbicidal rate of 40% or more and less than 70%) | 0 (Herbicidal rate of 5% or less (almost no effect)) | 4 (Herbicidal rate of 70% or more and less than 90%) | 3 (Herbicidal rate of 40% or more and less than 70%) | 4 (Herbicidal rate of 70% or more and less than 90%) |
| CCCOc1ccc(-c2sc3c(F)cccc3c2-c2c(OC(=O)CCC)c(C)nn(C)c2=O)cc1 [4-010] | 0 (Herbicidal rate of 5% or less (almost no effect)) | 5 (Herbicidal rate of 90% or more (almost completely withered)) | 4 (Herbicidal rate of 70% or more and less than 90%) | 4 (Herbicidal rate of 70% or more and less than 90%) | 5 (Herbicidal rate of 90% or more (almost completely withered)) | 3 (Herbicidal rate of 40% or more and less than 70%) | 0 (Herbicidal rate of 5% or less (almost no effect)) | 4 (Herbicidal rate of 70% or more and less than 90%) | 0 (Herbicidal rate of 5% or less (almost no effect)) | 0 (Herbicidal rate of 5% or less (almost no effect)) | 3 (Herbicidal rate of 40% or more and less than 70%) | 3 (Herbicidal rate of 40% or more and less than 70%) | 4 (Herbicidal rate of 70% or more and less than 90%) | 3 (Herbicidal rate of 40% or more and less than 70%) | 5 (Herbicidal rate of 90% or more (almost completely withered)) |
| CCCC(=O)Oc1c(C)nn(C)c(=O)c1-c1c(-c2ccc(OC)cc2)sc2c(Cl)cccc12 [4-024] | 0 (Herbicidal rate of 5% or less (almost no effect)) | 5 (Herbicidal rate of 90% or more (almost completely withered)) | 3 (Herbicidal rate of 40% or more and less than 70%) | 3 (Herbicidal rate of 40% or more and less than 70%) | 4 (Herbicidal rate of 70% or more and less than 90%) | 0 (Herbicidal rate of 5% or less (almost no effect)) | 0 (Herbicidal rate of 5% or less (almost no effect)) | 3 (Herbicidal rate of 40% or more and less than 70%) | 0 (Herbicidal rate of 5% or less (almost no effect)) | 0 (Herbicidal rate of 5% or less (almost no effect)) | 0 (Herbicidal rate of 5% or less (almost no effect)) | 0 (Herbicidal rate of 5% or less (almost no effect)) | 4 (Herbicidal rate of 70% or more and less than 90%) | 3 (Herbicidal rate of 40% or more and less than 70%) | 3 (Herbicidal rate of 40% or more and less than 70%) |
